Biological target: T1, H3R membranes (H3R8-expressing HEK293 cell line) (Homo sapiens, UniProt Q9Y5N1)
T1 construct: expressed in transfected cells; pcDNA3.1(+) vector, G418 selection)
Experiment: [35S] GTP gamma [S] binding assay
Format: biochemical
Conditions: inhibition of [35S]GTP gamma S binding to H3R membranes in presence of agonist R(-)alpha methylhistamine
Description: Membranes isolated as described in (Preparation of Histamine Receptor Subtype Membranes) are used in a [35S]GTPχS functional assay. Binding of [35S]GTPχS to membranes indicates agonist activity. Compounds of the invention of Formula I or Formula II are tested for their ability to inhibit binding in the presence of agonists. Alternately, the same transfected cell lines are used for a cAMP assay wherein H3R agonists inhibit forskolin-activated synthesis of cAMP. Compounds of Formula I or Formula II are tested for their ability to permit forskolin-stimulated cAMP synthesis in the presence of agonist.
cDNA for the human histamine 3 receptor is cloned and expressed as described in (A. Preparation H1R membranes), above. Transfected cells are selected using G418 ([…]), grown, and tested for histamine binding by the SPA described above. For total binding, cells are assayed in a SPA reaction described above containing 50 mM Tris-HCL (assay buffer), pH 7.6, 1 mg wheat germ agglutinin SPA beads (Amersham Pharmacia Biotech, #RPNQ0001), and 1 nM (^3H)-n-alpha-methylhistamine (NEN, NET1027) (total volume per well=200 μl). Thioperimide is added to determine non-specific binding. […]
Antagonist activity of selected compounds is tested for inhibition of [35S] […] Plates are counted in Wallac Trilux 1450 Microbeta scintillation counter for 1 minute. […]

T1 sequence (Q9Y5N1 whole entry): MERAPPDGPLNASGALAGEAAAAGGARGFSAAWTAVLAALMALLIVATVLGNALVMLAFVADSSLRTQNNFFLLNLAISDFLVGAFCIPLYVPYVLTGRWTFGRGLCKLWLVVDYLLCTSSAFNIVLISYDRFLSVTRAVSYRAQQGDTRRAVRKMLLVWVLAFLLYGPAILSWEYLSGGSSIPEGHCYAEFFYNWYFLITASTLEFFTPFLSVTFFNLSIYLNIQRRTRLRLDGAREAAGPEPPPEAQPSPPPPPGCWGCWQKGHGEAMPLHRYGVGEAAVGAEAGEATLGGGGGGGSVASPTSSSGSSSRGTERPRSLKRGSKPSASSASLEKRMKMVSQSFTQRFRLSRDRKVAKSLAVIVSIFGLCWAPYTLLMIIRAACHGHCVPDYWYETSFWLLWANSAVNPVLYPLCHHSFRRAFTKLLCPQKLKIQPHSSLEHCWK

SMILES	Ki
COc1ccc(C(=O)N2CCC[C@H]2CN2CCCC2)cc1	73.6 nM
CCCCOc1ccc(C(=O)N2CCC[C@@H]2CN2CCCC2)cc1	145 nM

Reference: patent US7951826B2, “Pyrrolidine derivatives as histamine H3 receptor antagonists” (Eli Lilly and Company, priority 2005, dated 2011)
